Literature values, collected in publication PMC9095539 (Clinical Pharmacokinetics, 2022).

Columns and labels:
[1] = system: CYP2B6
[2] = system: CYP2C9
[3] = BCS; no reference given
[4] = system: CYP3A4
[5] = system: CYP2C19

## CCCS(=O)(=O)N[C@H]1C[C@@H](N(C)c2ncnc3[nH]ccc23)C1 [abrocitinib, N-{cis-3-[Methyl(7H-pyrrolo[2,3-d]pyrimidin-4-yl)amino]cyclobutyl}propane-1-sulfo namide]
[1]
  Contribution to hepatic metabolism: 7%
other
  Eliminated unchanged in urine: 1.0–4.4%
once-daily dosing
  Time to steady-state plasma concentrations: ≤ 4 days
oral, healthy individuals
  Time to reach maximum levels: ≤ 1.5 h
[2]
  Contribution to hepatic metabolism: 30%
[3]
  Permeability: high
[4]
  Contribution to hepatic metabolism: 11%
[5]
  Contribution to hepatic metabolism: 53%
